Assay results reported in the supplement of paper PMC10627819.

Key:
S. aureus DSM 20231 = assay: Bliss interaction score (quartile over a dose matrix) (fitness difference); higher = more antagonism (negative = synergy)
Summary of the method: (§1)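 The Bliss score takes observed fitness and subtracts the expected fitness, calculated as a product of single-drug fitness values. Those single-drug values were inferred from the combination data. Fitness is OD595 at entry into stationary phase divided by the plate's robust no-drug mean, capped at 1, and the score is summarised by quartiles across technical, biological and donor/recipient replicates.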

S. pneumoniae D39V [1] = assay: as above
Summary of the method: as §1

S. aureus Newman [2] = assay: as above
Summary of the method: as §1

B. subtilis 168 [3] = assay: as above
Summary of the method: as §1

S. aureus Newman [4] = assay: fitness (endpoint OD595 vs no drug) (fraction); higher = more growth; settings: one replicate
Summary of the method: (§2)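 Plates with 384 wells were inoculated at OD595 0.01 using 30 µl of TSB, LB Lennox or CY, or 55 µl for S. pneumoniae. Incubation was at 37 °C, with OD595 measured every 30 min for 14 h. Fitness is the stationary-phase transition optical density over the robust mean of no-drug control wells, after first-reading background subtraction; it is capped at 1.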

S. pneumoniae D39V [5] = assay: as above
Summary of the method: as §2

B. subtilis 168 [6] = assay: as above
Summary of the method: as §2
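Throughout, for Bliss interaction score (quartile over a dose matrix): first quartile when negative (synergy) and third quartile when positive (antagonism).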

CC[C@H]1OC(=O)[C@H](C)[C@@H](O[C@H]2C[C@@](C)(OC)[C@@H](O)[C@H](C)O2)[C@H](C)[C@@H](O[C@@H]2O[C@H](C)C[C@H](N(C)C)[C@H]2O)[C@](C)(O)C[C@@H](C)CN(C)[C@H](C)[C@@H](O)[C@]1(C)O [Azithromycin] + C/C(=C\C(=O)OCCCCCCCCC(=O)O)C[C@@H]1OC[C@H](C[C@@H]2O[C@H]2[C@@H](C)[C@H](C)O)[C@@H](O)[C@H]1O [Pseudomonic acid]
Settings	Bliss interaction score
B. subtilis 168 [3]	-0.0541
S. aureus DSM 20231	-0.0221
S. aureus Newman [2]	-0.0303
S. pneumoniae D39V [1]	-0.0833

fitness, S. aureus Newman [4]
Settings	first compound 0.125 µg/mL	first compound 0.25 µg/mL	first compound 0.5 µg/mL
partner 0.0313 µg/mL	0.0547	0.0237	0
partner 0.0625 µg/mL	0.0262	0.0139	0.0154
partner 0.125 µg/mL	0.0288	0.0141	0.0119

CC1=C(C(=O)O)N2C(=O)[C@@H](NC(=O)[C@H](N)c3ccccc3)[C@H]2SC1 [Cephalexin] + C/C(=C\C(=O)OCCCCCCCCC(=O)O)C[C@@H]1OC[C@H](C[C@@H]2O[C@H]2[C@@H](C)[C@H](C)O)[C@@H](O)[C@H]1O [Pseudomonic acid]
Settings	Bliss interaction score
B. subtilis 168 [3]	0.0311
S. aureus DSM 20231	0.0119
S. aureus Newman [2]	0.0223
S. pneumoniae D39V [1]	0.154

fitness, S. pneumoniae D39V [5], one replicate
Settings	first compound 0.125 µg/mL	first compound 0.25 µg/mL	first compound 0.5 µg/mL
partner 0.03 µg/mL	0.933	0.958	≥ 1
partner 0.06 µg/mL	0.733	0.828	0.893
partner 0.12 µg/mL	0.45	0.559	0.616

fitness
Settings	first compound 0.5 µg/mL	first compound 1 µg/mL	first compound 2 µg/mL	first compound 4 µg/mL
S. aureus Newman [4], partner 0.0313 µg/mL	0.0692	0.0733	0.0904	–
S. aureus Newman [4], partner 0.0625 µg/mL	0.036	0.0347	0.0466	–
S. aureus Newman [4], partner 0.125 µg/mL	0.0496	0.0429	0.049	–
S. pneumoniae D39V [5], partner 0.03 µg/mL	–	0.67	–	0.0998
S. pneumoniae D39V [5], partner 0.06 µg/mL	–	0.6	–	0.123
S. pneumoniae D39V [5], partner 0.12 µg/mL	–	0.38	0.215	0.122

CC1=C(C(=O)O)N2C(=O)[C@@H](NC(=O)[C@H](N)c3ccccc3)[C@H]2SC1 [Cephalexin] + CC(=O)NC[C@H]1CN(c2ccc(N3CCOCC3)c(F)c2)C(=O)O1 [Linezolid]
Settings	Bliss interaction score
B. subtilis 168 [3]	0.0768
S. aureus DSM 20231	0.0858
S. aureus Newman [2]	0.106
S. pneumoniae D39V [1]	-0.075

fitness, one replicate
Settings	first compound 0.125 µg/mL	first compound 0.25 µg/mL	first compound 0.5 µg/mL	first compound 1 µg/mL
B. subtilis 168 [6], partner 0.0625 µg/mL	–	0.901	0.932	0.877
B. subtilis 168 [6], partner 0.125 µg/mL	–	–	–	0.66
B. subtilis 168 [6], partner 0.25 µg/mL	–	–	–	0.0828
S. pneumoniae D39V [5], partner 0.2 µg/mL	0.778	0.84	0.829	–
S. pneumoniae D39V [5], partner 0.4 µg/mL	0.667	0.707	0.726	–
S. pneumoniae D39V [5], partner 0.8 µg/mL	0.222	0.36	0.375	–

fitness
Settings	first compound 0.125 µg/mL	first compound 0.25 µg/mL	first compound 0.5 µg/mL	first compound 1 µg/mL	first compound 2 µg/mL	first compound 4 µg/mL
B. subtilis 168 [6], partner 0.125 µg/mL	0.569	0.582	0.601	–	–	–
B. subtilis 168 [6], partner 0.25 µg/mL	0.121	0.119	0.117	–	–	–
B. subtilis 168 [6], partner 0.5 µg/mL	0.0468	0.0463	0.0421	–	–	–
S. pneumoniae D39V [5], partner 0.105 µg/mL	–	–	–	0.606	0.0569	0.0509
S. pneumoniae D39V [5], partner 0.21 µg/mL	–	–	–	0.475	0.0291	0
S. pneumoniae D39V [5], partner 0.42 µg/mL	–	–	–	0.332	0.0014	0.0511

CC1=C(C(=O)O)N2C(=O)[C@@H](NC(=O)[C@H](N)c3ccccc3)[C@H]2SC1 [Cephalexin] + CCC(C)C1C(=O)NC(=C)C(=O)NC(C(=O)NC(CSCC(C(=O)N1)NC(=O)/C(=C/C)/NC(=O)C(C(C)CC)N)C(=O)NC2C(SCC(NC(=O)CNC(=O)C3CCCN3C2=O)C(=O)NC(CCCCN)C(=O)NC4C(SCC(NC(=O)CNC(=O)C(NC(=O)C(NC(=O)C(NC(=O)CNC4=O)C)CC(C)C)CCSC)C(=O)NC(CC(=O)N)C(=O)NC(CCSC)C(=O)NC(CCCCN)C(=O)NC5C(SCC6C(=O)NC(C(=O)NC(CSC(C(C(=O)N6)NC(=O)C(NC5=O)C)C)C(=O)NC(CO)C(=O)NC(C(C)CC)C(=O)NC(CC7=CN=CN7)C(=O)NC(C(C)C)C(=O)NC(=C)C(=O)NC(CCCCN)C(=O)O)CC8=CN=CN8)C)C)C)CC(C)C [Nisin]
main component drawn
Settings	Bliss interaction score
B. subtilis 168 [3]	0.0739
S. aureus DSM 20231	0.0845
S. aureus Newman [2]	0.0391
S. pneumoniae D39V [1]	-0.0433

fitness, one replicate, main component drawn
Settings	first compound 0.125 µg/mL	first compound 0.25 µg/mL	first compound 0.5 µg/mL	first compound 1 µg/mL
B. subtilis 168 [6], partner 0.5 µg/mL	0.827	0.849	0.85	–
B. subtilis 168 [6], partner 1 µg/mL	0.819	0.833	0.845	–
B. subtilis 168 [6], partner 1.25 µg/mL	–	≥ 1	0.914	0.959
B. subtilis 168 [6], partner 1.6 µg/mL	–	0.8	0.735	0.85
B. subtilis 168 [6], partner 2 µg/mL	0.564	0.546	0.643	–
B. subtilis 168 [6], partner 2.5 µg/mL	–	0.323	0.638	0.621
B. subtilis 168 [6], partner 3.2 µg/mL	–	0.0408	0.05	0.038
B. subtilis 168 [6], partner 4 µg/mL	0.0357	0.0253	0.0342	–
B. subtilis 168 [6], partner 5 µg/mL	–	0.0428	0.0078	0.0511
B. subtilis 168 [6], partner 6.4 µg/mL	–	0.055	0.052	0.0405
B. subtilis 168 [6], partner 8 µg/mL	0.0286	0.0256	0.0219	–
B. subtilis 168 [6], partner 16 µg/mL	0.0223	0.0191	0.051	–
S. pneumoniae D39V [5], partner 1.6 µg/mL	0.111	0.067	0.12	–
S. pneumoniae D39V [5], partner 3.2 µg/mL	0.0257	0.0254	0.0215	–
S. pneumoniae D39V [5], partner 6.4 µg/mL	0.0326	0.0252	0.0194	–

fitness, S. pneumoniae D39V [5], main component drawn
Settings	first compound 1 µg/mL	first compound 2 µg/mL	first compound 4 µg/mL
partner 0.4275 µg/mL	–	–	0.0461
partner 0.855 µg/mL	–	0.0896	0.05
partner 1.71 µg/mL	0.0562	0.0571	0.0769
